For three molecules, Ki, Kinact and Activity results are on record in ChEMBL document CHEMBL1157435, “Synthesis of 3',4'-epoxynoraristeromycin analogs for molecular labeling probe of S-adenosyl-l-homocysteine hydrolase” (Bioorg Med Chem, 2008).

The source made the active and inactive calls. The rule behind the calls is not given here.

The target in one assay is Adenosylhomocysteinase (Homo sapiens, UniProt P23526). Briefly: Inhibition of human SAHH.
Assay [1] is described as follows: (§1) Inhibition of Plasmodium falciparum SAHH.
A further assay relates to Plasmodium falciparum. The description is as §1.

The Ki is the equilibrium dissociation constant of an inhibitor or competing ligand from its target. A lower Ki goes with higher affinity. `Nc1nc(F)nc2c1ncn2[C@@H]1C[C@H]2O[C@H]2[C@H]1O`: the Ki worked out at 20.3 µM at Adenosylhomocysteinase and 14.3 µM in assay [1]. Also, the Kinact was determined as 0.133 min⁻¹ at Adenosylhomocysteinase and 0.099 min⁻¹ with Plasmodium falciparum.

`Nc1ncnc2c1ncn2C[C@H](O)[C@H](O)C=O` showed a Kinact on Adenosylhomocysteinase of 0.09 min⁻¹.

At Adenosylhomocysteinase, `Nc1ncnc2c1ncn2[C@@H]1C[C@H]2O[C@H]2[C@H]1O` returned an inhibition constant Ki of 12.4 µM and a Kinact of 0.552 min⁻¹. In the assay on Plasmodium falciparum, the outcome was inactive.
